One may read the IC50 as the concentration at which inhibition is half-maximal.

Assay [1] deals with EGFR-wt (MDA-MB-231 or MCF7 or A549 or OVCAR8) (Homo sapiens (Human), UniProt P00533). The assay is described as follows: EGFR protein degradation assay (Western blot). The settings on record: 72 hours, 300 nM to 10 nM. It is filed as cell-based. The method in brief: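 Cells carrying the relevant EGFR form were plated at 300,000 per well in 6-well plates and left overnight to attach. For harvest, cells were rinsed once in ice-cold PBS and lysed in 400 μl lysis buffer containing protease inhibitors. Lysates were cleared at 10 000 rpm for 10 minutes and their protein content measured by BCA. Then 10 μg per sample was separated by SDS/PAGE at 165V for 2 hours, and EGFR was detected by ECL on a Chemidoc.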
(In western blotting, separated proteins are transferred to a membrane and probed.)

In assay [2] the target is EGFR Exon 20 ASV (HeLa*) (Homo sapiens (Human), UniProt P00533, DUP767-769). The assay is described as follows: EGFR protein degradation assay (Western blot). Particulars: 72 hours, 300 nM to 10 nM. In kind it is cell-based.
The target in assay [3] is EGFR Exon20NPG (Homo sapiens (Human), UniProt P00533, INS770NPG). Put plainly: TR-FRET assay for ERBB kinases. In kind it is biochemical. The settings on record: geometric mean if measured more than once. The method in brief:
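Compounds pre-incubated 10 min with kinase in HEPES pH 7.5 buffer (MgCl2, DTT, Pluronic), then reaction started with substrate mix (3 mM ATP, 30 µM fluorescein-poly-GluTyr, stock levels) for 10 min at room temperature. EDTA-quenched, detected by Tb-pY20 antibody TR-FRET (520/490 nm emission).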
In general terms: In TR-FRET formats the signal depends on donor and acceptor labels being close together.

Assay [4] deals with EGFR WT (Homo sapiens (Human), UniProt P00533). The assay is described as follows: TR-FRET assay for ERBB kinases. It is filed as biochemical. Particulars: geometric mean if measured more than once. The method in brief: (§1)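 Compounds, serially diluted 3-fold in DMSO, were pre-incubated 10 min with kinase in HEPES pH 7.5 buffer with MgCl2 and DTT. Reactions were started with a substrate mix holding 3 mM ATP and 30 uM fluorescein-poly-GluTyr, run 10 min at room temperature, then quenched with Tb-pY20 antibody plus EDTA.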

Assay [5] concerns the target EGFR L858R/T790M/C797S (Homo sapiens (Human), UniProt P00533, C797S/L858R/T790M). Put plainly: TR-FRET assay for ERBB kinases. In kind it is biochemical. Particulars: geometric mean if measured more than once. The method in brief:
as §1

In assay [6] the target is EGFR L858R/T790M (Homo sapiens (Human), UniProt P00533, L858R/T790M). The assay is described as follows: TR-FRET assay for ERBB kinases. The settings on record: geometric mean if measured more than once. In kind it is biochemical. A digest of the protocol: as §1
The target in assay [7] is EGFR L858R/T790M/C797S triple mutant (H520*) (Homo sapiens (Human), UniProt P00533, C797S/L858R/T790M). Put plainly: EGFR protein degradation assay (Western blot). Particulars: 72 hours, 300 nM to 10 nM. In kind it is cell-based. The method in brief: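 EGFR loss in the triple-mutant line measured by immunoblot: clarified lysates normalised by BCA, run on 4-12% Bis-Tris gels, blotted to PVDF, probed with HRP anti-rabbit secondary. Before lysis, cells were dosed from 1, 0.3, 0.1, 0.03 and 0.01 mM DMSO stocks (not final concentrations) after overnight culture at 37° C.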

Assay [8] concerns the target EGFR L858R/T790M double mutant (H1975) (Homo sapiens (Human), UniProt P00533, L858R/T790M). Put plainly: EGFR protein degradation assay (Western blot). In kind it is cell-based. Particulars: 72 hours, 300 nM to 10 nM. The method in brief:
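Cells carrying the relevant EGFR form were plated at 300,000 cells per well in 6-well plates and left to attach overnight. After washing in ice-cold PBS, cells were lysed in 400 μl lysis buffer with protease inhibitors, scraped, and clarified at 10 000 rpm for 10 minutes. EGFR levels were then assessed by Western blot with tubulin as loading control.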

EGFR Exon 20 ASV (HeLa*), sequence (P00533 other isoform, or with tags, fused parts or gaps dup 767-769): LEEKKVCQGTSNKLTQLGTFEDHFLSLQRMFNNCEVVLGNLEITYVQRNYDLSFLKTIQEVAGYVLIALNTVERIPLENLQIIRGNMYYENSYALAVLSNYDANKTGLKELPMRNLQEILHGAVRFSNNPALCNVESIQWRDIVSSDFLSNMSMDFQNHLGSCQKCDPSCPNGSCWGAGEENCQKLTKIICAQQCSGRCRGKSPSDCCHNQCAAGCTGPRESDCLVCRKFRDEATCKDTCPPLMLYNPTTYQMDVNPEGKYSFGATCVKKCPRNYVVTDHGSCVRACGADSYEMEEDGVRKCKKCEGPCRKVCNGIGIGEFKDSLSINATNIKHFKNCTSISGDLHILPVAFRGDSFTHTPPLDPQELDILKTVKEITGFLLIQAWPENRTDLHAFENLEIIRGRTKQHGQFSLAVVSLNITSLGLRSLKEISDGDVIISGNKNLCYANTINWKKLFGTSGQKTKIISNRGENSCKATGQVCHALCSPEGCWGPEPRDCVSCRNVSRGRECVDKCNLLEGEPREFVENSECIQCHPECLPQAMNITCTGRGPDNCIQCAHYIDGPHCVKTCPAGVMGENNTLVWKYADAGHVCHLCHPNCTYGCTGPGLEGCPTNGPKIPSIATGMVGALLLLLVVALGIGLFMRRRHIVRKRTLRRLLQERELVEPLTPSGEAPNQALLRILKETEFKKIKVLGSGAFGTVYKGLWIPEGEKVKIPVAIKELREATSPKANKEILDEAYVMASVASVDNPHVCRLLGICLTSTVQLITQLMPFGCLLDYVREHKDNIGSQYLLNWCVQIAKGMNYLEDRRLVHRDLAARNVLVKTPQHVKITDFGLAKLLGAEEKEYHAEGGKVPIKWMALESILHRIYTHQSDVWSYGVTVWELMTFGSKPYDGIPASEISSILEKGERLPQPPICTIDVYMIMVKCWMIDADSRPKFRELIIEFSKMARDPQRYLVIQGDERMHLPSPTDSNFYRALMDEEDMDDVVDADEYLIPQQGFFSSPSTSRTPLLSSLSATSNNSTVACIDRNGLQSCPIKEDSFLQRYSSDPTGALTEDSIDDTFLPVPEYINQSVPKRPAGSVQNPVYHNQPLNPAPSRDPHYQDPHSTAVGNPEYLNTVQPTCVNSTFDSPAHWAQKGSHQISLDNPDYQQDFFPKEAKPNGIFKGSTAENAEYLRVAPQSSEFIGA
EGFR-wt (MDA-MB-231 or MCF7 or A549 or OVCAR8), sequence (P00533 25-1210): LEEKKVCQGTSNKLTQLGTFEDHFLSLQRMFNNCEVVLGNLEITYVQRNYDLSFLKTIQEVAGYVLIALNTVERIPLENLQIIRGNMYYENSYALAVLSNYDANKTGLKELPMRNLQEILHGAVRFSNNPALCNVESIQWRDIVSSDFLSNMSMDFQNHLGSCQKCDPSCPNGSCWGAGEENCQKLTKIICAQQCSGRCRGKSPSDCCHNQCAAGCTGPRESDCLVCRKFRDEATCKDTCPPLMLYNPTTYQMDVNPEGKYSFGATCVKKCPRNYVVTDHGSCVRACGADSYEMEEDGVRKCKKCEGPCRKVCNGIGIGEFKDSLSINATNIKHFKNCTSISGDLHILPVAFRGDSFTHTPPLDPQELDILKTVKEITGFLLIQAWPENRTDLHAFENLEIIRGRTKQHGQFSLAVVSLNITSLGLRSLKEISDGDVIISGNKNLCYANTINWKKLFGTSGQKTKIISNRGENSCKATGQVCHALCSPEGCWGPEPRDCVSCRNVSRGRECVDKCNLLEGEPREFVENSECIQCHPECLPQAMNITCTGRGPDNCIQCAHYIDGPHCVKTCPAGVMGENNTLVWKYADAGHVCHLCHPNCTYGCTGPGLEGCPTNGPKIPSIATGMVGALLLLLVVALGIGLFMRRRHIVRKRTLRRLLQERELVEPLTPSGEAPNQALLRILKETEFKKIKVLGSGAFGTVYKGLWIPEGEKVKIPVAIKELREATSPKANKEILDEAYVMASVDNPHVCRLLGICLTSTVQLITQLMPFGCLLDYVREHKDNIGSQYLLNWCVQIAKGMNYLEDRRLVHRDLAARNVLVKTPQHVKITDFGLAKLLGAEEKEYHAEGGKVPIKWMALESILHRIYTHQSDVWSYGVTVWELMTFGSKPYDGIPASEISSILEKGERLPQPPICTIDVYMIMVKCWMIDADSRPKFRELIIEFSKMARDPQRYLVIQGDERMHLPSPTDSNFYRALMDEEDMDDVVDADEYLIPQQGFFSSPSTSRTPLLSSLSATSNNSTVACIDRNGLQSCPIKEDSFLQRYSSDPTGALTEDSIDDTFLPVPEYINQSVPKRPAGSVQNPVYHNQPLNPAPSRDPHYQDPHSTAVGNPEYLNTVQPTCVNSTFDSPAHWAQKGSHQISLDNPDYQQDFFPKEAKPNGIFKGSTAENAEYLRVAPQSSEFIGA
EGFR WT, sequence (P00533 25-1210): as above
EGFR L858R/T790M, sequence (P00533 25-1210 T790M/L858R): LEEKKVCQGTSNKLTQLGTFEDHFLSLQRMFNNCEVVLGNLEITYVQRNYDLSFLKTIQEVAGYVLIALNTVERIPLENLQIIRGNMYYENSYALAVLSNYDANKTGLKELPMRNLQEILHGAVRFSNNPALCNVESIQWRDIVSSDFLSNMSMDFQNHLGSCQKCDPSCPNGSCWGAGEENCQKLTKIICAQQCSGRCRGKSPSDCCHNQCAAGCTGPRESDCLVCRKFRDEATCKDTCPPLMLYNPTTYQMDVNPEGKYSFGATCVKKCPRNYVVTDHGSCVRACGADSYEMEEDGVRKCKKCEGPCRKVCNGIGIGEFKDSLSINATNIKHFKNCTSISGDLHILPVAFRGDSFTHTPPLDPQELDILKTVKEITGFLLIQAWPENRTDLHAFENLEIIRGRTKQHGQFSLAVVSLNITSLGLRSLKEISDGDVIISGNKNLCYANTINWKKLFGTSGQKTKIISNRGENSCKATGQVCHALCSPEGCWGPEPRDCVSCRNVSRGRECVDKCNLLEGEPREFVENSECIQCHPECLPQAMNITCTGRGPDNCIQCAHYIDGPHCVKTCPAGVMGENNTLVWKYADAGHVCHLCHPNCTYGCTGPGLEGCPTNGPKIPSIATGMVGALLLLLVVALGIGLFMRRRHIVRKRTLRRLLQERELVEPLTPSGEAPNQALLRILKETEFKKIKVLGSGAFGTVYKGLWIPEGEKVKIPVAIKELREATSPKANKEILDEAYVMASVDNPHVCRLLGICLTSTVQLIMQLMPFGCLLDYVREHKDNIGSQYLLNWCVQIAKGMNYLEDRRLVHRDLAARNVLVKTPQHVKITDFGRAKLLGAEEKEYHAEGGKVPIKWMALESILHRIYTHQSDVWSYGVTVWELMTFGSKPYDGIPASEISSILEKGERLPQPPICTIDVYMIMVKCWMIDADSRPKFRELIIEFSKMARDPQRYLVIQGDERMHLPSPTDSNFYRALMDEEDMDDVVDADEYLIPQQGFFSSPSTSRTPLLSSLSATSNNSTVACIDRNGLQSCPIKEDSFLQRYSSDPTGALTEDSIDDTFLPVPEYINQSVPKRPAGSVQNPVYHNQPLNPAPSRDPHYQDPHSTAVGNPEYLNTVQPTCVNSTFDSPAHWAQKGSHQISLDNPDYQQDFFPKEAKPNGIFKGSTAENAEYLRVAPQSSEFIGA

Take `Cc1ncsc1-c1ccc(CNC(=O)[C@@H]2C[C@@H](O)CN2C(=O)[C@@H](NC(=O)COCCOCCOCCOc2ccc(-c3cc4c(NCc5ccccc5Cl)ncnc4[nH]3)cc2)C(C)(C)C)cc1` [Example 14, (2S,4R)-1-((S)-2-(tert-butyl)-14-(4-(4-((2-chlorobenzyl)amino)-7H-pyrrolo[2,3-d]pyrimidin-6-yl)phenoxy)-4-oxo-6,9,12-trioxa-3-azatetradecanoyl)-4-hydroxy-N-(4-(4-methylthiazol-5-yl)benzyl)pyrrolidine-2-carboxamide]: the “EGFR protein remaining, EGFR-wt” value in assay [1] was “C (>80% EGFR protein remaining after 72 hours of incubation with the test compound at a concentration of 300 nM)”. Also, the “EGFR protein remaining, EGFR Exon 20 ASV” value in assay [2] is on record as “C (>80% EGFR protein remaining after 72 hours of incubation with the test compound at a concentration of 300 nM)”.
As to `O=C1CCC(N2C(=O)c3ccc(OCCOCCOCCN4CCN(Cc5ccc(-c6cc7c(NCc8ccccc8Cl)ncnc7[nH]6)cc5)CC4)cc3C2=O)C(=O)N1` (stereo not shown) [Example 17, 5-(2-(2-(2-(4-(4-(4-((2-chlorobenzyl)amino)-7H-pyrrolo[2,3-d]pyrimidin-6-yl)benzyl)piperazin-1-yl)ethoxy)ethoxy)ethoxy)-2-(2,6-dioxopiperidin-3-yl)isoindoline-1,3-dione], the IC50 was determined as 190 nM in assay [3], 220 nM in assay [4], 4900 nM in assay [5] and 7200 nM in assay [6]. Moreover, the “EGFR protein remaining, EGFR-wt” value in assay [1] is “C (>80% EGFR protein remaining after 72 hours of incubation with the test compound at a concentration of 300 nM)”. Moreover, the “EGFR protein remaining, EGFR Exon 20 ASV” value in assay [2] is listed as “C (>80% EGFR protein remaining after 72 hours of incubation with the test compound at a concentration of 300 nM)”.
In the case of `O=C1CCC(N2C(=O)c3ccc(OCCOCCN4CCN(Cc5ccc(-c6cc7c(NCc8ccccc8Cl)ncnc7[nH]6)cc5)CC4)cc3C2=O)C(=O)N1` (stereo not shown) [Example 102, 5-(2-(2-(4-(4-(4-((2-chlorobenzyl)amino)-7H-pyrrolo[2,3-d]pyrimidin-6-yl)benzyl)piperazin-1-yl)ethoxy)ethoxy)-2-(2,6-dioxopiperidin-3-yl)isoindoline-1,3-dione], in assay [1], the “EGFR protein remaining, EGFR-wt” value is reported as “C (>80% EGFR protein remaining after 72 hours of incubation with the test compound at a concentration of 300 nM)”. For the same compound, the “EGFR protein remaining, EGFR Exon 20 ASV” value in assay [2] is given as “C (>80% EGFR protein remaining after 72 hours of incubation with the test compound at a concentration of 300 nM)”.
On to `Cc1ncsc1-c1ccc([C@H](C)NC(=O)[C@H]2C[C@H](O)CN2C(=O)[C@@H](NC(=O)COCCOCCOCCOCCOCCOCC#Cc2cccc3c2C(=O)N([C@@H](C(=O)Nc2nccs2)c2cc(F)ccc2O)C3)C(C)(C)C)cc1` [compound 275], for which the IC50 in assay [3] stood at 9100 nM; in assay [4], 660 nM; in assay [5] it was 69 nM; in assay [6], 880 nM. Further, in assay [7], the “EGFR protein remaining, EGFR L858R/T790M/C797S triple mutant” value was “B (≤80% and >50% EGFR protein remaining after 72 hours of incubation with the test compound at a concentration between 300 nM and 10 nM)”. Also, in assay [8], the “EGFR protein remaining, EGFR L858R/T790M double mutant” value is listed as “C (>80% EGFR protein remaining after 72 hours of incubation with the test compound at a concentration of 300 nM)”. In assay [1], the “EGFR protein remaining, EGFR-wt” value is listed as “C (>80% EGFR protein remaining after 72 hours of incubation with the test compound at a concentration of 300 nM)”.
With `Cc1ncsc1-c1ccc(CNC(=O)[C@@H]2C[C@@H](O)CN2C(=O)[C@@H](NC(=O)CO[C@H]2C[C@H](Oc3ccc(N4CCN(CCOCc5nc6cnc(Nc7ccnc(-c8cnn(S(=O)(=O)C9CC9)c8)n7)cc6n5C(C)C)CC4)cc3)C2)C(C)(C)C)cc1` [compound 304], the “EGFR protein remaining, EGFR L858R/T790M/C797S triple mutant” value in assay [7] is “A (≤50% EGFR protein remaining after 72 hours of incubation with the test compound at a concentration between 300 nM and 10 nM)”. Further, the IC50 in assay [4] is > 30000 nM; in assay [5], 17 nM; in assay [6] it was 92 nM. The “EGFR protein remaining, EGFR-wt” value in assay [1] was “C (>80% EGFR protein remaining after 72 hours of incubation with the test compound at a concentration of 300 nM)”.
